Literature values in patent publication US6576227B1, “Peroxidase-activating oral compositions” (Oraceutical Innovative Properties, LLC, priority 1995, dated 2003).

Legend:
[1] = 20° C.
cellular DNA = settings: elevated concentrations (greater than about 0.1 percent or about 29 millimoles per liter)

pH upon dissolution, 1% solution (1% solution in water)	pH, saturated solution (saturated solution in water)	water solubility [1] [grams per liter]	concentration of saturated solution ([1]; water) [%]	SMILES	mutagenicity and cellular DNA damage (cellular DNA)
approximately 4.05	approximately 3.40	800	44.4	NC(N)=O.OO [Carbamide peroxide]	
				OO [hydrogen peroxide]	mutagenic
